Laboratory results: publication PMC10384408, “Anticancer Tungstenocenes with a Diverse Set of (O,O–), (O,S–) and (O,N–) Chelates—A Detailed Biological Study Using an Improved Evaluation via 3D Spheroid Models” (Pharmaceutics, 2023)

Key:
[1] = test system: SW480 (colon carcinoma) cells; test: MTT cytotoxicity assay, SW480 monolayer; type: cell-based, human; conditions: exposure time 96 h, mean ± SD
Description: (§1) CH1/PA-1 (ovarian teratocarcinoma), SW480 (colon carcinoma) and A549 (non-small cell lung cancer) cells were maintained as described in the reference. IMR-90 human fetal lung fibroblasts (from the European Collection of Authenticated Cell Cultures, Porton Down, Salisbury, UK) were cultured in Stable Cell^TM DMEM/F12 supplemented with 0.01 mg/mL human recombinant insulin (both purchased from Sigma-Aldrich) and 10% fetal bovine serum (FBS, BioWest, Nuaillé, France). Human colon carcinoma cell lines HCT116 and HT29 (both kindly provided by the Institute of Cancer Research, Department of Medicine I, Medical University of Vienna, Austria) were cultured in McCoy’s 5a medium supplemented with 4 mM L-glutamine (both purchased from Sigma-Aldrich) and 10% FBS. MCF-7 human breast adenocarcinoma cells (kindly provided by M. Ogris, Department of Pharmaceutical Sciences, University of Vienna, Austria) were maintained in DMEM (high glucose) supplemented with 4 mM L-glutamine, 0.1 mg/mL human insulin (all purchased from Sigma-Aldrich) and 10% FBS. All cell lines were grown as monolayers in 75 cm^2 culture flasks (CytoOne, Starlab, Hamburg, Germany) at 37 °C in a humidified atmosphere containing 5% CO2.
(§2) Exponentially growing cells were plated into 96-well microculture plates (CytoOne, tissue culture treated, Starlab, Hamburg, Germany) in densities of 1 × 10^3 CH1/PA-1, 2 × 10^3 SW480, 3 × 10^3 A549 and 7 × 10^3 IMR-90 cells per well (each in 100 µL). After a 24 h preincubation, drugs were added in serial dilution to give a final volume of 200 µL/well and exposed for 96 h. At the end of the exposure, the drug solutions were replaced by 100 µL RPMI 1640/MTT mixture (7:1 ratio). MTT (3-(4,5-dimethylthiazol-2-yl)-2,5-diphenyl-2H-tetrazolium bromide), (Acros Organics, Geel, Belgium) solution was prepared in phosphate-buffered saline (5 mg/mL) and mixed with RPMI1640 medium supplemented with 4 mM L-glutamine (both from Sigma-Aldrich) and 10% FBS. After 4 h incubation, the formazan crystals were solubilized in 150 µL of DMSO per well. Absorbance was measured at 550 nm (and at 690 nm as a reference) with a microplate reader (ELx808, BioTek, Winoosky, VT, USA) and Gen5^TM 3.08 software (BioTek). The 50% inhibitory concentrations (IC50) relative to untreated controls were interpolated from concentration-effect curves. At least three biologically and technically independent experiments were performed.

[2] = test system: CH1/PA-1 (ovarian teratocarcinoma) cells; test: MTT cytotoxicity assay, CH1/PA-1 monolayer; type: cell-based, human; conditions: exposure time 96 h, mean ± SD
Description: as §1, §2

HCT116 cells [3] = test: Resazurin assay, HCT116 2D monolayer; type: cell-based, human; conditions: 96 h
Description: as §1
(§3) For the resazurin assay in monolayer cultures, cells were seeded into 96-well microculture plates (CytoOne, tissue culture treated, Starlab, Hamburg, Germany) in densities of 2 × 10^3 HCT116, 2 × 10^3 HT29 and 4 × 10^3 MCF-7 cells per well (each in 100 µL). For tests in 3D cultures, spheroids were grown as described above. After 24 h (for monolayers) or 4 days (for spheroids) the test compounds in the appropriate medium were added in serial dilution to the plates to obtain a total volume of 200 µL/well. Wells without cells, containing medium and resazurin (Alfa Aesar, Thermo Fisher, Kandel, Germany) solution were used as blanks. After 96 h exposure 20 µL of the resazurin solution (440 µM) were added to each well, followed by a 4 h (2D) or 12 h (3D) incubation period. Resorufin fluorescence was quantified at 530 nm (and a reference wavelength of 620 nm) by using a microplate reader (Synergy HT, BioTek) with Gen5^TM 3.10 software (BioTek).

[4] = test system: HCT116 multicellular tumor spheroids; test: Resazurin assay, HCT116 3D spheroids; type: cell-based, human; conditions: 96 h; for IC50: spheroids
Description: as §1
(§4) For growing multicellular tumor spheroids, 400 HCT116, 400 HT29 or 800 MCF-7 cells per well were plated into round-bottom ultra-low attachment 96-well plates (Corning, Glendale, AZ, USA) in the media described above and incubated at 37 °C for 96 h. Spheroids were treated with 10 µM of the two most cytotoxic compounds 3 and 4 for another 96 h. The diameters of the spheroids were measured with Cell^F software under a CKX41 Olympus microscope before treatment and in constant daily intervals over the 96 h treatment period. For statistical analysis the t-test with Welsh’s correction was implemented in GraphPad Prism software (Version 6.01).
as §3

[5] = test system: HT29 multicellular tumor spheroids; test: Resazurin assay, HT29 3D spheroids; type: cell-based, human; conditions: 96 h; for IC50: spheroids
Description: as §1, §4, §3

MCF-7 cells [6] = test: Resazurin assay, MCF-7 2D monolayer; type: cell-based, human; conditions: 96 h
Description: as §1, §3

[7] = test system: MCF-7 multicellular tumor spheroids; test: Resazurin assay, MCF-7 3D spheroids; type: cell-based, human; conditions: 96 h; for IC50: spheroids
Description: as §1, §4, §3

[8] = Solubility in PBS (1% DMSO); type: physicochemical
Description: Stock solutions in DMSO of compounds 1–10 were utilized to determine the solubility in PBS by adding 1 vol% of the stock solution to a suitable amount of PBS. […] UV/Vis data were recorded on a Perkin Elmer Lambda 650 UV/Vis Spectrophotometer with a Peltier element for temperature control.

HCT116 cells [9] = test: Annexin V-FITC/PI apoptosis assay, HCT116; type: cell-based, human; conditions: HCT116, 24 h; for ∑apoptotic cells [%]: sum of early and late
MCF-7 cells [10] = test: Annexin V-FITC/PI apoptosis assay, MCF-7; conditions: MCF-7, 24 h; for ∑apoptotic cells [%]: sum of early and late

## Cc1cc(=O)c([O-])co1.F[P-](F)(F)(F)(F)F.[W+4].c1cc[cH-]c1.c1cc[cH-]c1 [Compound 7, Bis(η^5-cyclopentadienyl)[2-methyl-5-(oxo-κO)-4-(1H)-pyran-4-ato-κO] tungsten(IV) hexafluorophosphate]
[1]
  IC50: > 200 µM
[2]
  IC50: 152 ± 16 µM
HCT116 cells [3]
  IC50: > 200 µM
[4]
  IC50: > 200 µM
[5]
  IC50: > 200 µM
MCF-7 cells [6]
  IC50: > 200 µM
[7]
  IC50: > 200 µM
[8]
  Solubility in PBS (1% DMSO): 350 µg/mL
HCT116 cells [9]; 200 µM
  early apoptotic cells [%] AV+ / PI-: 4.5 ± 1.8%
  late apoptotic cells [%] AV+ / PI+: 13.7 ± 8.2%
  necrotic cells [%] AV- / PI+: 3.6 ± 0.9%
  viable cells [%] AV- / PI-: 78.2 ± 9.3%
  ∑apoptotic cells [%]: 18.2%
MCF-7 cells [10]; 200 µM
  early apoptotic cells [%] AV+ / PI-: 1.3 ± 0.4%
  late apoptotic cells [%] AV+ / PI+: 8.1 ± 5.5%
  necrotic cells [%] AV- / PI+: 3.2 ± 1.2%
  viable cells [%] AV- / PI-: 87.4 ± 6.6%
  ∑apoptotic cells [%]: 9.4%

## Cc1c([O-])c(=O)ccn1C.F[P-](F)(F)(F)(F)F.[W+4].c1cc[cH-]c1.c1cc[cH-]c1 [Compound 6, Bis(η^5-cyclopentadienyl)[1,2-dimethyl-3-(oxo-κO)-4-(1H)-pyridonato-κO]tungsten(IV) hexafluorophosphate]
[1]
  IC50: 154 ± 29 µM
[2]
  IC50: > 200 µM
HCT116 cells [3]
  IC50: > 200 µM
[4]
  IC50: > 200 µM
[5]
  IC50: > 200 µM
MCF-7 cells [6]
  IC50: 172 ± 45 µM
[7]
  IC50: > 200 µM
[8]
  Solubility in PBS (1% DMSO): 1200 µg/mL
HCT116 cells [9]; 200 µM
  early apoptotic cells [%] AV+ / PI-: 5.0 ± 1.3%
  late apoptotic cells [%] AV+ / PI+: 17.2 ± 122%
  necrotic cells [%] AV- / PI+: 3.1 ± 0.7%
  viable cells [%] AV- / PI-: 74.7 ± 14.1%
  ∑apoptotic cells [%]: 22.2%
MCF-7 cells [10]; 200 µM
  early apoptotic cells [%] AV+ / PI-: 1.4 ± 0.8%
  late apoptotic cells [%] AV+ / PI+: 3.6 ± 1.5%
  necrotic cells [%] AV- / PI+: 2.1 ± 0.5%
  viable cells [%] AV- / PI-: 92.8 ± 2.2%
  ∑apoptotic cells [%]: 5.1%

## F[P-](F)(F)(F)(F)F.[O-]c1c(-c2ccc(Cl)cc2)oc2ccccc2c1=S.[W+4].c1cc[cH-]c1.c1cc[cH-]c1 [Compound 4, Bis(η^5-cyclopentadienyl)[2-(4-chlorophenyl)-3-(oxo-κO)-4(H)-chromen-4-thionato-κS]tungsten(IV) hexafluorophosphate]
[1]
  IC50: 2.4 ± 0.5 µM
[2]
  IC50: 1.6 ± 0.5 µM
HCT116 cells [3]
  IC50: 6 ± 0.9 µM
[4]
  ratio 3D/2D of IC50 values, HCT116: 2.5
  IC50: 15 ± 4 µM
[5]
  ratio 3D/2D of IC50 values, HT29: 5.6
  IC50: 31 ± 6 µM
MCF-7 cells [6]
  IC50: 2.7 ± 0.7 µM
[7]
  ratio 3D/2D of IC50 values, MCF-7: 7.0
  IC50: 19 ± 2 µM
[8]
  Solubility in PBS (1% DMSO): 10 µg/mL
HCT116 cells [9]; 2 µM
  early apoptotic cells [%] AV+ / PI-: 2.3 ± 0.0%
  late apoptotic cells [%] AV+ / PI+: 8.0 ± 6.2%
  necrotic cells [%] AV- / PI+: 2.4 ± 1.5%
  viable cells [%] AV- / PI-: 87.3 ± 7.8%
  ∑apoptotic cells [%]: 10.3%
HCT116 cells [9]; 20 µM
  early apoptotic cells [%] AV+ / PI-: 1.9 ± 0.4%
  late apoptotic cells [%] AV+ / PI+: 31.1 ± 4.7%
  necrotic cells [%] AV- / PI+: 11.5 ± 1.2%
  viable cells [%] AV- / PI-: 55.5 ± 4.8%
MCF-7 cells [10]; 2 µM
  early apoptotic cells [%] AV+ / PI-: 1.0 ± 0.8%
  late apoptotic cells [%] AV+ / PI+: 3.4 ± 1.2%
  necrotic cells [%] AV- / PI+: 1.8 ± 0.0%
  viable cells [%] AV- / PI-: 93.9 ± 2.1%
  ∑apoptotic cells [%]: 4.4%
MCF-7 cells [10]; 10 µM
  early apoptotic cells [%] AV+ / PI-: 1.2 ± 0.5%
  late apoptotic cells [%] AV+ / PI+: 12.0 ± 2.0%
  necrotic cells [%] AV- / PI+: 11.7 ± 4.7%
  viable cells [%] AV- / PI-: 75.2 ± 2.2%
  ∑apoptotic cells [%]: 13.2%
MCF-7 cells [10]; 20 µM
  early apoptotic cells [%] AV+ / PI-: 1.0 ± 0.4%
  late apoptotic cells [%] AV+ / PI+: 15.1 ± 3.3%
  necrotic cells [%] AV- / PI+: 33.8 ± 14.5%
  viable cells [%] AV- / PI-: 50.2 ± 10.8%
MCF-7 cells [10]; 50 µM
  early apoptotic cells [%] AV+ / PI-: 0.0 ± 0.0%
  late apoptotic cells [%] AV+ / PI+: 43.4 ± 3.7%
  necrotic cells [%] AV- / PI+: 51.5 ± 10.3%
  viable cells [%] AV- / PI-: 5.0 ± 6.6%
  ∑apoptotic cells [%]: 43.4%
